Laboratory results as given in patent US4714701A, “Antiviral compounds” (Burroughs Wellcome Co., priority 1985, dated 1987).
pIC50: −log10 of the molar value. Where two headings read alike, the source gives them in different places.

Tests used:
dogs = test: Toxicity in dogs, intravenous route; format: in vivo, dog; conditions: 60 mg/kg/day
Method: The toxicity of the compound of Example 2 was determined by administering the compound to dogs at a dosage of 60 mg/kg/day, by the intravenous route.

EBV [1] = test: Anti-EBV activity (method described by Nonogama l. Pagano, 1971); format: cell-based, Epstein-Barr virus; conditions: human gammaherpesvirus 4
Method: The inhibitory effect of the compound of Example 2 against EBV was determined by the method described by Nonogama l. Pagano, 1971, Nature: New Biology, Vol. 233, 103-104.

herpes simplex virus = test: Anti-HSV activity, plaque reduction assay; format: cell-based
Method: The inhibiting effect of the compounds of Example 1 and 2 against herpes simplex virus were determined by the plaque reduction assay.

EBV [2] = test: Activity against EBV infections (general statement); design: species or system Epstein-Barr virus
CMV = test: Activity against CMV infections (general statement); design: species or system cytomegalovirus
herpes simplex [3] = test: Activity against herpes simplex (general statement); design: species or system herpes simplex virus
herpes simplex [4] = conditions: prior art compound; cited from earlier work

| SMILES | toxic effects (dogs) | pIC50 (EBV [1]) | pIC50 (herpes simplex virus) | activity against EBV infections (EBV [2]) | activity against CMV infections (CMV) | activity against herpes simplex (herpes simplex [3]) | activity against herpes simplex (herpes simplex [4]) |
| --- | --- | --- | --- | --- | --- | --- | --- |
| Nc1nc2c(nnn2COC(CO)CO)c(=O)[nH]1 [Example 2, 5-Amino-3,6-dihydro-3-[(2-hydroxy-1-hydroxymethylethoxy)methyl]-7H-1,2,3-triazolo[4,5-d]pyrimidin-7-one] | No toxic effects were noted | 5.00 to 6.00 | 4.56 | especially potent activity | especially potent activity |  |  |
| Nc1nc2c(nc(N)n2COC(CO)CO)c(=O)[nH]1 [Example 1, 8-Amino-9-[(2-hydroxy-1-hydroxymethylethoxy)methyl]guanine] |  |  | 6.30 |  |  | particularly high activity |  |
| Nc1nc2c(ncn2COCCO)c(=O)[nH]1 [acyclovir, 9-(2-hydroxyethoxymethyl)guanine] |  |  |  |  |  |  | particularly good activity |
